For the assay, the system named is cultured human mast cells (CHMC). Briefly: CHMC low cell density IgE activation: tryptase assay. Format: cell-based. The note with it: IgE activation. How it is done: Inhibition of degranulation was measured at both low and high cell density by quantifying the release of the granule specific factors tryptase, histamine and hexosaminidase. Inhibition of release and/or synthesis of lipid mediators was assessed by measuring the release of leukotriene LTC4 and inhibition of release and/or synthesis of cytokines was monitored by quantifying TNF-α, IL-6 and IL-13. Tryptase and hexosaminidase were quantified using fluorogenic substrates as described in their respective examples. […] The protocols of the various assays are provided below.
Pellet CHMC cells (980 rpm, 10 min) and resuspend in pre-warmed MT. Add 65 ul of cells to each 96-well plate. Depending on the degranulation activity for each particular CHMC donor, load 1000-1500 cells/well. Mix four times followed by a 1 hr incubation at 37° C. […] Stimulate cells by adding 25 ul of 6× anti-IgE solution to the appropriate plates. Add 25 ul MT to un-stimulated control wells. Mix twice following addition of the anti-IgE. Incubate at 37° C. for 30 minutes. […] Spin plates at 1000 rpm for 10 min to pellet cells. Transfer 25 ul of supernatant to a 96-well black bottom plate and add 100 ul of freshly diluted tryptase substrate solution to each well. Incubate plates at room temperature for 30 min.

[1] abbreviates: low cell density CHMC, tryptase, 8 pt, read-out: LD Tryptase, CHMC, IgE, 8 pt.
[2] abbreviates: Homo sapiens, Mast cell, low cell density CHMC, tryptase, 8 pt, read-out: LD Tryptase, CHMC, IgE, 8 pt.
Where [3] appears, read: Homo sapiens, Mast cell, low cell density CHMC, tryptase, 3 pt, read-out: LD Tryptase, CHMC, IgE, 3 pt.
[4] abbreviates: Homo sapiens, Mast cell, low cell density CHMC, tryptase release, 8 pt, read-out: LD Tryptase, CHMC, IgE, 8 pt.
Where [5] appears, read: low cell density CHMC, tryptase release, 3 pt, read-out: LD Tryptase, CHMC, IgE, 3 pt.
Setting [6] is: low cell density CHMC, tryptase release, 8 pt, read-out: LD Tryptase, CHMC, IgE, 8 pt.
[7] abbreviates: Homo sapiens, Mast cell, low cell density, 3 pt, read-out: LD Tryptase, CHMC, IgE, 3 pt.
The mark [8] stands for this setting: Homo sapiens, Mast cell, low cell density, 8 pt, read-out: LD Tryptase, CHMC, IgE, 8 pt.

Read-outs that look alike come from different tables or passages of the source. Where only a bound is given, the exact number is not on record here.

This is an account of results in patent publication US20220073536A1 (Rigel Pharmaceuticals, Inc., priority 2003, published 2022).

On to `CCOC(=O)C(C)(C)Oc1ccc(Nc2nc(Cl)ncc2F)cc1Cl` [Compound 407, 2-Chloro-N4-[3-chloro-4-(ethoxycarbonyl-1,1-dimethylmethyleneoxy)phenyl]-5-fluoro-4-pyrimidineamine], for which, under setting [1], the IC50 is under 10 µM.
In the case of `Cc1cc(C)cc(Nc2ncc(F)c(Nc3nc(N)n[nH]3)n2)c1` [Compound 1252], under setting [2], the IC50 is over 10 µM.
For `CCOC(=O)N1CCC(Nc2nc(Cl)ncc2F)CC1` [Compound 1213], under setting [3], the IC50 was over 10 µM.
On to `COc1cc(Nc2ncc(F)c(Nc3ccc4c(n3)NC(=O)[C@H](C)O4)n2)cc(OC)c1OC` [Compound 1082, (S)-5-Fluoro-N4-(2-methyl-3-oxo-2H,4H-5-pyrid[1,4]oxazin-6-yl)-N2-(3,4,5-trimethoxyphenyl)-2,4-pyrimidinediamine], for which the IC50 was under 10 µM (low cell density CHMC, tryptase readout, 3 pt, read-out: LD Tryptase, CHMC, IgE, 3 pt) and under 10 µM (low cell density CHMC, tryptase readout, 8 pt, read-out: LD Tryptase, CHMC, IgE, 8 pt).
On to `CC1(C)Oc2ccc(Nc3nc(Nc4ccc5c(cnn5C5CCCCC5)c4)ncc3F)cc2NC1=O` [Compound 744, N2-(1-Cyclohexylindazol-5-yl)-N4-(2,2-dimethyl-3-oxo-4H-benz[1,4]oxazin-6-yl)-5-fluoro-2,4-pyrimidinediamine], for which, under setting [2], the IC50 is under 10 µM.
Consider `Cc1cc(C)cc(Nc2ncc(F)c(Nc3ccc4c(c3)NC(=O)[C@@H](C)O4)n2)c1` [Compound 204, (R)-N2-(3,5-Dimethylphenyl)-5-fluoro-N4-(2-methyl-3-oxo-2H,4H-benz[1,4]oxazin-6-yl)-2,4-pyrimidinediamine], for which, under setting [4], the IC50 is under 10 µM.
In the case of `O=C1COc2ccc(Nc3ncc(F)c(Nc4ccc5c(c4)NC(=O)CO5)n3)cc2N1` [Compound 1083, N2,N4-Bis (3-oxo-2H,4H-benz[1,4]oxazin-6-yl)-5-fluoro-2,4-pyrimidinediamine], the IC50 is, setting by setting: (Homo sapiens, Mast cell, low cell density CHMC, tryptase readout, 3 pt, read-out: LD Tryptase, CHMC, IgE, 3 pt) under 10 µM; (Homo sapiens, Mast cell, low cell density CHMC, tryptase readout, 8 pt, read-out: LD Tryptase, CHMC, IgE, 8 pt) under 10 µM.
For the compound `Cn1nc(N)c2cc(Nc3ncc(F)c(Nc4ccc5c(n4)NC(=O)C(C)(C)O5)n3)ccc21` [Compound 837, N2-(3-Amino-1-methylindazol-5-yl)-N4-(2,2-dimethyl-3-oxo-4H-5-pyrid[1,4]oxazin-6-yl)-5-fluoro-2,4-pyrimidinediamine], the IC50 is under 10 µM under setting [5] and under 10 µM under setting [6].
In the case of `COc1cc(Nc2nc(Nc3ccc(OC)c(OC)c3OC)ncc2F)ccc1Cl` [Compound 670], under setting [3], the IC50 is over 10 µM.
For the compound `COc1ccc(Nc2nc(Nc3ccc4cn[nH]c4c3)ncc2F)nc1Cl` [Compound 882], under setting [7], the IC50 was under 10 µM.
Turning to `COc1cc(Nc2nc(Nc3ccc(C(N)=O)c(Cl)c3)ncc2F)ccc1Cl` [Compound 1354], the IC50 reads like this: under setting [3], under 10 µM; under setting [2], under 10 µM.
As for `CC(=O)NCCCn1c(C)nc2cc(Nc3ncc(F)c(Nc4ccc5c(c4)NC(=O)C(C)(C)O5)n3)ccc21` [Compound 952], the IC50 is, setting by setting: under setting [7], under 10 µM; under setting [8], under 10 µM.
Regarding `CC(C)n1ncc2cc(Nc3ncc(F)c(Nc4ccc(Cl)c(Cl)c4)n3)ccc21` [Compound 780, N4-(3,4-Dichlorophenyl)-5-fluoro-N2-[1-(1-methylethyl)indazol-5-yl]-2,4-pyrimidinediamine], the IC50 under setting [4] was under 10 µM.
`C[C@H]1Oc2ccc(Nc3nc(Nc4cccc(CN)c4)ncc3F)cc2NC1=O` [Compound 1280]: the IC50 (low cell density CHMC, tryptase, 3 pt, read-out: LD Tryptase, CHMC, IgE, 3 pt) is under 10 µM and the IC50 under setting [1] was under 10 µM.
For the compound `CC1(C)C(=O)Nc2cc(Nc3nc(Nc4ccc5cn[nH]c5c4)ncc3F)ccc2S1(=O)=O` [Compound 273], the IC50 under setting [4] was under 10 µM.
For `CNC(=O)COc1cccc(Nc2ncc(F)c(Nc3ccc4c(c3)NC(=O)C(C)(C)S4(=O)=O)n2)c1` [Compound 275, N4-(2,2-Dimethyl-1,1,3-trioxo-4H-benzo[1,4]thiazin-6-yl)-5-fluoro-N2-[3-(N-methylamino)carbonylmethyleneoxyphenyl]-2,4-pyrimidinediamine], under setting [6], the IC50 was under 10 µM.
Take `CCn1c(C)nc2cc(Nc3ncc(F)c(Nc4ccc(Cl)c(Cl)c4)n3)ccc21` [Compound 932]: under setting [7], the IC50 was over 10 µM.
As for `CC1(C)Sc2ccc(Nc3nc(Cl)ncc3F)cc2NC1=O` [Compound 316, N2-Chloro-N4-(2,2,-dimethyl-3-oxo-4H-benzo[1,4]thiazin-6-yl)-5-fluoro-4-pyrimidineamine], the IC50 under setting [5] was under 10 µM.
For the compound `COc1ccc(Nc2ncc(F)c(Nc3ccc(OC)c(Cl)n3)n2)cc1Cl` [Compound 878, N2-(3-Chloro-4-methoxyphenyl)-N4-(2-chloro-3-methoxypyrid-6-yl)-5-fluoro-2,4-pyrimidinediamine], the IC50 under setting [7] is over 10 µM.
As to `CC(C)c1cccc(Nc2ncc(F)c(Nc3ccc4c(n3)NC(=O)C(C)(C)O4)n2)c1` [Compound 1003, N4-(2,2-Dimethyl-3-oxo-4H-5-pyrid[1,4]oxazin-6-yl)-5-fluoro-N2-(3-isopropylphenyl)-2,4-pyrimidinediamine], the IC50 (low cell density, 3 pt, read-out: LD Tryptase, CHMC, IgE, 3 pt) was under 10 µM and the IC50 (low cell density, 8 pt, read-out: LD Tryptase, CHMC, IgE, 8 pt) is under 10 µM.
As to `COc1ccc(Nc2nc(Nc3ccc4cnn(CC5CCC5)c4c3)ncc2F)cc1Cl` [Compound 730, N4-(3-Chloro-4-methoxyphenyl)-N2-[1-(cyclobutylmethyl)indazol-6-yl]-5-fluoro-2,4-pyrimidinediamine], the IC50 under setting [3] is under 10 µM.
With `COc1cc(Cl)cc(Nc2ncc(F)c(Nc3ccc4c(c3)NC(=O)C(C)(C)O4)n2)c1` [Compound 369, N2-(3-Chloro-5-methoxyphenyl)-N4-(2,2-dimethyl-3-oxo-4H-benz[1,4]oxazin-6-yl)-5-fluoro-2,4-pyrimidinediamine], under setting [2], the IC50 was under 10 µM.
Turning to “5-Fluoro-N2- (3-hydroxyphenyl)-N4- (4-[N-[methoxycarbonylmethylene]aminocarbonyl]phenyl)-2,4-pyrimidinediamine [Compound 1328]”, the IC50 under setting [1] is under 10 µM.
Take `CC1(C)Oc2ccc(Nc3nc(Nc4ccc5oncc5c4)ncc3F)cc2NC1=O` [Compound 926]: the IC50 under setting [8] was under 10 µM.
For the compound `CC1Sc2ccc(Nc3nc(Nc4ccc5cn[nH]c5c4)ncc3F)cc2NC1=O` (centres unmarked) [Compound 277], under setting [4], the IC50 is under 10 µM.
For `CN1C(C)(C)CC(Nc2nc(Cl)ncc2F)CC1(C)C` [Compound 1212], the IC50 under setting [3] is over 10 µM.
Same read-out and setting: the same measure for `COc1cc(Nc2nc(Nc3cc(C)c(Cl)c(C)c3)ncc2F)cc(OC)c1` [Compound 349]: under 10 µM.
In the case of `CC1Sc2ccc(Nc3nc(Cl)ncc3F)cc2NC1=O` (racemic) [Compound 314, racemic-N2-Chloro-5-fluoro-N4-(2-methyl-3-oxo-2H,4H-benzo[1,4]thiazin-6-yl)-4-pyrimidineamine], the IC50 under setting [5] is under 10 µM.
In the case of `COc1cc(Nc2nc(Nc3cc(Cl)cc(Cl)c3)ncc2F)cc(OC)c1` [Compound 352], the IC50 under setting [3] is under 10 µM.
Take `Cc1cc(C)cc(Nc2ncc(F)c(Nc3cc(C)cc(C)c3)n2)c1` [Compound 341, N2,N4-Bis (3,5-dimethylphenyl)-5-fluoro-2,4-pyrimidinediamine]: the IC50 under setting [3] was under 10 µM.
On the same count and under the same terms, for `COc1cc(Nc2nc(Nc3cc(OC)cc(C(F)(F)F)c3)ncc2F)cc(OC)c1` [Compound 355] the value was under 10 µM.
Turning to `CC1(C)Oc2ccc(Nc3nc(Nc4ccc5c(cnn5CCCNS(=O)(=O)C(F)(F)F)c4)ncc3F)cc2NC1=O` [Compound 842, N4-(2,2-Dimethyl-3-oxo-4H-benz[1,4]oxazin-6-yl)-5-fluoro-N2-[1-[3-(N-trifluoromethylsulfonylamino)propyl]indazol-5-yl]-2,4-pyrimidinediamine], under setting [4], the IC50 is under 10 µM.
For the compound `CCCn1cc2ccc(Nc3ncc(F)c(Nc4ccc(Cl)c(Cl)c4)n3)cc2n1` [Compound 765, N4-(3,4-Dichlorophenyl)-5-fluoro-N2-(2-n-propylindazol-6-yl)-2,4-pyrimidinediamine], the IC50 is under 10 µM under setting [3] and under 10 µM under setting [2].
Take `COc1ccc(Nc2ncc(F)c(Nc3ccc4c(c3)NC(=O)C(C)S4(=O)=O)n2)cc1F` (racemic) [Compound 296]: the IC50 was under 10 µM (Homo sapiens, Mast cell, low cell density CHMC, tryptase release, 3 pt, read-out: LD Tryptase, CHMC, IgE, 3 pt) and under 10 µM under setting [4].
On to `Cc1cc(C)cc(Nc2ncc(F)c(Nc3ccc4c(c3)NC(=O)[C@H](C)O4)n2)c1` [Compound 202, (S)-N2-(3,5-Dimethylphenyl)-5-fluoro-N4-(2-methyl-3-oxo-2H,4H-benz[1,4]oxazin-6-yl)-2,4-pyrimidinediamine], for which the IC50 under setting [4] was under 10 µM.
